Test results reported in patent US20250161307A1, “PYRAZOLOPYRIMIDINES AS MODULATORS OF SPERMINE OXIDASE” (Janssen Pharmaceutica NV, priority 2022, published 2025).
Where a name gives a salt, the structure may show the parent alone.

Columns and labels:
SMOX = SMOX (Homo sapiens (Human), UniProt Q9NWM0); assay: Human SMOX assay (HyPerBlu chemiluminescent detection of hydrogen peroxide); type: biochemical; conditions: 2.5 nM full length hSMOX, spermine substrate, 1 h at room temperature, luminescence read; read-out: SMOx_IC50
Chain of SMOX (Q9NWM0 whole entry): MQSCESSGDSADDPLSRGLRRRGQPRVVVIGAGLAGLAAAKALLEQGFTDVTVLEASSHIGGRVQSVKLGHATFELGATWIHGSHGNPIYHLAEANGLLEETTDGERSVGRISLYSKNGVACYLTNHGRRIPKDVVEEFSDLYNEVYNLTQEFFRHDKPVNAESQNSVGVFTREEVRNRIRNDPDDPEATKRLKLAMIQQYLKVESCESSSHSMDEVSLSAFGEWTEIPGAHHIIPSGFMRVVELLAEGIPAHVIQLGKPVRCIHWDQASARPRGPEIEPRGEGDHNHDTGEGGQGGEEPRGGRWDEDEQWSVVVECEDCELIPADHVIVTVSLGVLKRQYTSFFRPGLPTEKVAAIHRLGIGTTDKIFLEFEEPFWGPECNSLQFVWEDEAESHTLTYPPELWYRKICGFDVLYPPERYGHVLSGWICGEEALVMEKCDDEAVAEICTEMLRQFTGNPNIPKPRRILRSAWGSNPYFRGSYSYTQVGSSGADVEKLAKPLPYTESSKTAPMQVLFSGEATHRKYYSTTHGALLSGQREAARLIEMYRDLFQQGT
In short: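 Full-length N-His human SMOX (2.5 nM, E. coli-expressed) was incubated 1 h at room temperature with 30 µM spermine, 11-point compound dilutions and 1.25% DMSO in pH 7.4 HEPES/NaCl/EGTA buffer. H2O2 was detected by HyPerBlu chemiluminescence after 30 min, and IC50 came from dose–response fits.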

hPAOX = hPAOX (Homo sapiens (Human), UniProt Q6QHF9); assay: Human PAOX assay (HyPerBlu chemiluminescent detection of hydrogen peroxide); type: biochemical; conditions: 60 pM recombinant PAOX, 20 μM N-acetylspermine substrate
Chain of hPAOX (Q6QHF9 whole entry): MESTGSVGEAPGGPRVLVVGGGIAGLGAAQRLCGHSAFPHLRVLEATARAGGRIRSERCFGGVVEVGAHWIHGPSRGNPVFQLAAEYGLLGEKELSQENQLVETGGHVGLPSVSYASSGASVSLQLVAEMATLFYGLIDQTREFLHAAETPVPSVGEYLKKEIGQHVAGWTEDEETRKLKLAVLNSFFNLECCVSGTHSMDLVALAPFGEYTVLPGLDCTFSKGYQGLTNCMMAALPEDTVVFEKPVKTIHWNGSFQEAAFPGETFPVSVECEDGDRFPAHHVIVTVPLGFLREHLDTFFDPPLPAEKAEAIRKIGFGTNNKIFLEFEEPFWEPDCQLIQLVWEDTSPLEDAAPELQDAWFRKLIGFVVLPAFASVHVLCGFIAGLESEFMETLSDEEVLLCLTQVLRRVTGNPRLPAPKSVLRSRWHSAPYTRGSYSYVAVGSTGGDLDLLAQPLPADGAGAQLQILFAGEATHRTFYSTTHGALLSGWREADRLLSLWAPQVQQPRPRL
In short: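 His-tagged recombinant PAOX expressed in sf9 insect cells was used at 60 pM, with 20 μM N-acetylspermine as substrate. Hydrogen peroxide formed by the reaction was detected by chemiluminescence from a boronate probe (HyPerBlu). Inhibition appears as lower luminescence.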

Structure (SMILES)	IC50 (SMOX)	IC50 (hPAOX)
CN1CC(NC(=O)c2nn3c(-c4ccccc4)cc(-c4ccccc4)nc3c2F)C1 [Example 52, 3-Fluoro-N-(1-methylazetidin-3-yl)-5,7-diphenylpyrazolo[1,5-a]pyrimidine-2-carboxamide]	215 nM	1.92 µM
CN1CCC(NC(=O)c2cc3nc(-c4ccccc4)cc(N4CCCCC4)n3n2)C1 (stereo not shown) [Example 71, N-(1-methylpyrrolidin-3-yl)-5-phenyl-7-(piperidin-1-yl)pyrazolo[1,5-a]pyrimidine-2-carboxamide trifluoroacetate]	988 nM	5.36 µM
CN1CC(N(C)C(=O)c2cc3nc(-c4ccccc4)cc(-c4ccccc4)n3n2)C1 [Example 45, N-Methyl-N-(1-methylazetidin-3-yl)-5,7-diphenylpyrazolo[1,5-a]pyrimidine-2-carboxamide]	1820 nM	11.6 µM
CN(C)CC(C)(C)CNC(=O)c1cc2nc(-c3ccccc3)cc(-c3ccccc3)n2n1 [Example 33, N-(3-(Dimethylamino)-2,2-dimethylpropyl)-5,7-diphenylpyrazolo[1,5-a]pyrimidine-2-carboxamide]	314 nM	> 31.2 µM
Cc1c(C(=O)NC2CCN(C)C2)nn2c(-c3ccccc3)cc(-c3ccccc3)nc12 (stereo not shown) [Example 51, 3-Methyl-N-(1-methylpyrrolidin-3-yl)-5,7-diphenylpyrazolo[1,5-a]pyrimidine-2-carboxamide]	821 nM	7.71 µM
O=C(NCCc1ncc[nH]1)c1cc2nc(-c3ccccc3)cc(-c3ccccc3)n2n1 [Example 25, N-(2-(1H-Imidazol-2-yl)ethyl)-5,7-diphenylpyrazolo[1,5-a]pyrimidine-2-carboxamide]	253 nM	0.035 µM
CN1CCN(c2cc(-c3ccccc3)nc3cc(C(=O)NCCCn4ccnc4)nn23)CC1 [Example 60, N-(3-(1H-Imidazol-1-yl)propyl)-7-(4-methylpiperazin-1-yl)-5-phenylpyrazolo[1,5-a]pyrimidine-2-carboxamide]	> 31200 nM	24.8 µM
CC(=O)Nc1ccc(-c2cc(-c3ccccc3)nc3cc(C(=O)NCCCn4ccnc4)nn23)cc1 [Example 95, N-(3-(1H-imidazol-1-yl)propyl)-7-(4-acetamidophenyl)-5-phenylpyrazolo[1,5-a]pyrimidine-2-carboxamide]	> 31200 nM	2.07 µM
